According to paper PMC5526551, “New hydrazonoindolin-2-ones: Synthesis, exploration of the possible anti-proliferative mechanism of action and encapsulation into PLGA microspheres” (PLoS ONE, 2017):
Like-named read-outs stand apart in the source and are kept apart here.

Key:
[1] = tested on: HT-29, ZR-75 and A-549 cell lines; experiment: Average anti-proliferative activity over the three cancer cell lines; type: cell-based, human; conditions: average of HT-29, ZR-75, A-549; for inhibition at 30 µM: read-out: Average Growth Inhibition %; for inhibition at 30 µM / Average Growth Inhibition %: 30 μM
Protocol: (§1) Twenty compounds, i.e. 4a-o and 7a-e, were analyzed for cancer cell growth inhibitory activity. These studies were carried out using cells derived from human lung, colon and breast tumors (A549, HT-29 and ZR-75 cells, respectively). This initial assessment of activity tested each compound in quadruplicate at a single concentration of 30 μM, if solubility permitted.
Therefore, they were subjected to quantitative inhibitory concentration 50% (IC50) determination for their cell growth inhibitory activity towards the A549, HT-29 and ZR-75 cancer cell lines.
(§2) A549, HT-29, ZR-75 were obtained from the American Type Culture Collection (ATCC). Cells were harvested from 90-95% confluent 10 cm dishes, and diluted in growth media (RPMI-1640 supplemented with 5% fetal bovine serum). An appropriate concentration of cells were prepared to add 1,250 cells in a volume of 25 µL per well in tissue culture treated Griener 384-well microplates, then incubated overnight at 37°C. Compound 7e was diluted to a concentration of 30 µM in DMSO. Concentrated dosing solutions of twice the final concentration were prepared by dilution of the DMSO stocks 1:500 in growth media. Two-fold serial dilutions were then prepared in medium containing 0.2% DMSO to maintain a constant concentration of vehicle throughout the concentration range of the compound. Each of these was added in an equal volume (25 µL) to four wells on each cell assay plate, along with the vehicle control. The highest concentration for serial dilutions of the positive control (sunitinib) was prepared exactly as the experimental compound 7e. Cells were incubated with the compounds for a further 72 h.
(§3) The potency of compounds was determined using the non-linear dose response algorithm (four-parameter logistic fit) with GraphPad Prism 5 software.

HT-29 = experiment: Anti-proliferative activity, cell growth inhibition (CellTiterGlo, 72 h); type: cell-based, human; conditions: for inhibition at 30 µM: HT-29, read-out: Cell growth inhibitory activity, HT-29; for IC50: 72 h
Protocol: as §1, §2
(§4) At the end of the treatment period, assay plates were allowed to cool to RT for 10 min prior to the addition of 25 µL per well Promega CellTiterGlo reagent, followed by additional 10 min incubation at RT. The resulting luminescence was quantitated using a Molecular Devices Spectramax Paradigm.
(§5) Percent growth inhibition was calculated as follows, where 100 represents the viability of vehicle treated control samples:
as §3

A549 = experiment: as above; type: cell-based, human; conditions: for inhibition at 30 µM: A549, read-out: Cell growth inhibitory activity, A-549; for IC50: read-out: IC50 A-549
Protocol: as §1, §2, §4, §5, §3

ZR-75 = experiment: as above; type: cell-based, human; conditions: for inhibition at 30 µM: ZR75, read-out: Cell growth inhibitory activity, ZR-75
Protocol: as §1, §2, §4, §5, §3

NCI cell lines = tested on: NCI cell lines; set-up: method as in PMID 17073710, PMID 16860559; conditions: against 46 out of 53 NCI cell lines; cited from earlier work
[2] = target: glycogen synthase kinase 3 beta (GSK-3β); conditions: read-out: IC50 GSK-3β; binding to the ATP pocket; cited from earlier work
[3] = tested on: cyclin-dependent kinases (CDKs); conditions: read-out: IC50 CDKs; binding to the ATP pocket; cited from earlier work
[4] = Homo sapiens, 30 μM, quadruplicate

For COc1ccc(C=NN=C2C(=O)Nc3ccccc32)cc1 [Compound 4a, 3-((4-Methoxybenzylidene)hydrazono)indolin-2-one], the inhibition at 30 µM ([1]; Homo sapiens) was 27.2%, the melting point was 277 to 279 °C and the inhibition at 30 µM (HT-29; [4]) was 19.5 ± 12.4%. For the same molecule, the inhibition at 30 µM (A549; [4]) was 27.1 ± 20.3% and the inhibition at 30 µM (ZR-75; [4]) was 34.8 ± 23.7%.

For COc1ccc(C=NN=C2C(=O)Nc3ccccc32)cc1O [Compound 4b, 3-((3-Hydroxy-4-methoxybenzylidene)hydrazono)indolin-2-one], the inhibition at 30 µM ([1]; Homo sapiens) was 69.2%, the melting point was 273 to 275 °C and the inhibition at 30 µM (HT-29; [4]) was 81.9 ± 3%. The inhibition at 30 µM (A549; [4]) was 66.3 ± 5.7% and the inhibition at 30 µM (ZR-75; [4]) was 59.3 ± 11.1%.

Molecule COc1cc(C=NN=C2C(=O)Nc3ccccc32)ccc1O [Compound 4c, 3-((4-Hydroxy-3-methoxybenzylidene)hydrazono)indolin-2-one] has an inhibition at 30 µM ([1]; Homo sapiens) of 61.5%, an inhibition at 30 µM (HT-29; [4]) of 74.9 ± 5.3% and an inhibition at 30 µM (A549; [4]) of 54.2 ± 5%. For the same molecule, the inhibition at 30 µM (ZR-75; [4]) was 55.4 ± 23.4%.

In the case of COc1ccc(C=NN=C2C(=O)Nc3ccccc32)cc1OC [Compound 4d, 3-((3,4-Dimethoxybenzylidene)hydrazono)indolin-2-one], the inhibition at 30 µM ([1]; Homo sapiens) is reported as 74.3%, the melting point is reported as 276 to 278 °C and the inhibition at 30 µM (HT-29; [4]) is reported as 81.7 ± 5.2%. It also gave an inhibition at 30 µM (A549; [4]) of 82.5 ± 6.9% and an inhibition at 30 µM (ZR-75; [4]) of 58.8 ± 4.3%.

Molecule COc1cc(C=NN=C2C(=O)Nc3ccccc32)cc(OC)c1OC [Compound 4e, 3-((3,4,5-Trimethoxybenzylidene)hydrazono)indolin-2-one] has an inhibition at 30 µM ([1]; Homo sapiens) of 87.2%, a melting point of 240 to 241 °C and an inhibition at 30 µM (HT-29; [4]) of 81.9 ± 5.4%. It also gave an inhibition at 30 µM (A549; [4]) of 93.6 ± 3.6% and an inhibition at 30 µM (ZR-75; [4]) of 86.1 ± 3.8%.

Molecule COc1ccc(C=NN=C2C(=O)Nc3ccc(Cl)cc32)cc1 [Compound 4f, 5-Chloro-3-((4-methoxybenzylidene)hydrazono)indolin-2-one] has an inhibition at 30 µM ([1]; Homo sapiens) of 8.4%, a melting point of 282 to 284 °C and an inhibition at 30 µM (HT-29; [4]) of 6.1 ± 8.6%. It also gave an inhibition at 30 µM (A549; [4]) of 8.4 ± 10% and an inhibition at 30 µM (ZR-75; [4]) of 10.9 ± 14%.

Work on COc1ccc(C=NN=C2C(=O)Nc3ccc(Cl)cc32)cc1O [Compound 4g, 5-Chloro-3-((3-hydroxy-4-methoxybenzylidene)hydrazono)indolin-2-one] yielded an inhibition at 30 µM ([1]; Homo sapiens) of 41.2%, a melting point of 278 to 280 °C and an inhibition at 30 µM (HT-29; [4]) of 33.5 ± 11.3%. It also gave an inhibition at 30 µM (A549; [4]) of 44.2 ± 16.5% and an inhibition at 30 µM (ZR-75; [4]) of 46 ± 6.4%.

COc1cc(C=NN=C2C(=O)Nc3ccc(Cl)cc32)ccc1O [Compound 4h, 5-Chloro-3-((4-hydroxy-3-methoxybenzylidene)hydrazono)indolin-2-one] gave an inhibition at 30 µM ([1]; Homo sapiens) of 36.6%, a melting point of 269 to 271 °C and an inhibition at 30 µM (HT-29; [4]) of 41.6 ± 10.4%. For the same molecule, the inhibition at 30 µM (A549; [4]) was 37.3 ± 8.1% and the inhibition at 30 µM (ZR-75; [4]) was 30.9 ± 9.5%.

Molecule COc1ccc(C=NN=C2C(=O)Nc3ccc(Cl)cc32)cc1OC [Compound 4i, 5-Chloro-3-((3,4-dimethoxybenzylidene)hydrazono)indolin-2-one] has an inhibition at 30 µM ([1]; Homo sapiens) of 11.4%, a melting point of 282 to 284 °C and an inhibition at 30 µM (HT-29; [4]) of -3.6 ± 9.7%. For the same molecule, the inhibition at 30 µM (A549; [4]) was 4.9 ± 3.3% and the inhibition at 30 µM (ZR-75; [4]) was 33 ± 13%.

COc1cc(C=NN=C2C(=O)Nc3ccc(Cl)cc32)cc(OC)c1OC [Compound 4j, 5-Chloro-3-((3,4,5-trimethoxybenzylidene)hydrazono)indolin-2-one] showed an inhibition at 30 µM ([1]; Homo sapiens) of 8.9%, a melting point of 245 to 247 °C and an inhibition at 30 µM (HT-29; [4]) of 6.9 ± 4.2%. The inhibition at 30 µM (A549; [4]) was 1.7 ± 17.5% and the inhibition at 30 µM (ZR-75; [4]) was 18.1 ± 21.2%.

With COc1ccc(C=NN=C2C(=O)Nc3ccc(Br)cc32)cc1 [Compound 4k, 5-Bromo-3-((4-methoxybenzylidene)hydrazono)indolin-2-one] the “Average Growth Inhibition %” value [1] was “stimulated the growth”, the inhibition at 30 µM ([1]; Homo sapiens) was -4.3% and the melting point was 290 to 292 °C. For the same molecule, the inhibition at 30 µM (HT-29; [4]) was -0.6 ± 7.2%, the inhibition at 30 µM (A549; [4]) was -6.9 ± 9.4% and the inhibition at 30 µM (ZR-75; [4]) was -5.3 ± 18.1%.

With COc1ccc(C=NN=C2C(=O)Nc3ccc(Br)cc32)cc1O [Compound 4l, 5-Bromo-3-((3-hydroxy-4-methoxybenzylidene)hydrazono)indolin-2-one] the inhibition at 30 µM ([1]; Homo sapiens) was 45.6%, the melting point was 278 to 280 °C and the inhibition at 30 µM (HT-29; [4]) was 45.9 ± 9.8%. It also gave an inhibition at 30 µM (A549; [4]) of 46.6 ± 9.5% and an inhibition at 30 µM (ZR-75; [4]) of 44.3 ± 18.4%.

Work on COc1cc(C=NN=C2C(=O)Nc3ccc(Br)cc32)ccc1O [Compound 4m, 5-Bromo-3-((4-hydroxy-3-methoxybenzylidene)hydrazono)indolin-2-one] yielded an inhibition at 30 µM ([1]; Homo sapiens) of 61.5%, a melting point of 285 to 287 °C and an inhibition at 30 µM (HT-29; [4]) of 42.1 ± 1.8%. The inhibition at 30 µM (A549; [4]) was 83.7 ± 10.3% and the inhibition at 30 µM (ZR-75; [4]) was 58.7 ± 16%.

COc1ccc(C=NN=C2C(=O)Nc3ccc(Br)cc32)cc1OC [Compound 4n, 5-Bromo-3-((3,4-dimethoxybenzylidene)hydrazono)indolin-2-one] showed an inhibition at 30 µM ([1]; Homo sapiens) of 3.5%, a melting point of 280 to 282 °C and an inhibition at 30 µM (HT-29; [4]) of -2 ± 10.2%. For the same molecule, the inhibition at 30 µM (A549; [4]) was 0.1 ± 5.1% and the inhibition at 30 µM (ZR-75; [4]) was 12.5 ± 21.9%.

With COc1cc(C=NN=C2C(=O)Nc3ccc(Br)cc32)cc(OC)c1OC [Compound 4o, 5-Bromo-3-((3,4,5-trimethoxybenzylidene)hydrazono)indolin-2-one] the “Average Growth Inhibition %” value [1] was “stimulated the growth”, the inhibition at 30 µM ([1]; Homo sapiens) was -0.5% and the melting point was 261 to 263 °C. For the same molecule, the inhibition at 30 µM (HT-29; [4]) was -1.1 ± 9%, the inhibition at 30 µM (A549; [4]) was -3.4 ± 6.6% and the inhibition at 30 µM (ZR-75; [4]) was 3.1 ± 8.2%.

CN1C(=O)C(=NN=C2C(=O)Nc3ccc(F)cc32)c2ccccc21 [Compound 7a, 5-Fluoro-3-((1-methyl-2-oxoindolin-3-ylidene)hydrazono)indolin-2-one] showed an inhibition at 30 µM ([1]; Homo sapiens) of 85%, a melting point of 295 to 297 °C and an inhibition at 30 µM (HT-29; [4]) of 84.8 ± 3.6%. It also gave an inhibition at 30 µM (A549; [4]) of 91.6 ± 4.8% and an inhibition at 30 µM (ZR-75; [4]) of 78.6 ± 9.9%.

With CN1C(=O)C(=NN=C2C(=O)Nc3ccc(Cl)cc32)c2ccccc21 [Compound 7b, 5-Chloro-3-((methyl-2-oxoindolin-3-ylidene)hydrazono)indolin-2-one] the “Average Growth Inhibition %” value [1] was 95.4%, the IC50 [1] was 4.77 µM and the “Cell growth inhibitory activity, HT-29” value (HT-29; 30 μM, quadruplicate) was 95.5 ± 3.4%. The IC50 (HT-29) was 5.38 µM, the “Cell growth inhibitory activity, A-549” value (A549; 30 μM, quadruplicate) was 95.2 ± 2.8% and the IC50 (A549; 72 h) was 5.19 µM. For the same molecule, the “Cell growth inhibitory activity, ZR-75” value (ZR-75; 30 μM, quadruplicate) was 95.5 ± 6.0% and the IC50 (ZR-75; 72 h) was 3.75 µM.

O=C1Nc2ccccc2C1=NN=C1C(=O)N(Cc2ccccc2)c2ccccc21 [Compound 7c, 1-Benzyl-3-((oxoindolin-3-ylidene)hydrazono)indolin-2-one] showed an inhibition at 30 µM ([1]; Homo sapiens) of 84.2%, a melting point of 255 to 257 °C and an inhibition at 30 µM (HT-29; [4]) of 73.8 ± 4.4%. For the same molecule, the inhibition at 30 µM (A549; [4]) was 86.6 ± 9.9% and the inhibition at 30 µM (ZR-75; [4]) was 92.1 ± 3.8%.

O=C1Nc2ccc(Cl)cc2C1=NN=C1C(=O)N(Cc2ccccc2)c2ccccc21 [Compound 7d, 1-Benzyl-3-((5-chloro-2-oxoindolin-3-ylidene)hydrazono)indolin-2-one] gave an inhibition at 30 µM ([1]; Homo sapiens) of 97.7%, an IC50 ([1]; Homo sapiens) of 3.39 µM and a melting point of 258 to 260 °C. The IC50 (HT-29) was 3.62 µM, the IC50 (HT-29; Homo sapiens, HT-29, 72 h) was 3.82 µM and the inhibition at 30 µM (HT-29; [4]) was 97 ± 1.8%. It also gave an IC50 (A549; Homo sapiens, A549, 72 h) of 4.13 µM, an inhibition at 30 µM (A549; [4]) of 98.4 ± 0.6% and an IC50 (ZR-75; Homo sapiens, ZR75, 72 h) of 2.42 µM. For the same molecule, the inhibition at 30 µM (ZR-75; [4]) was 97.8 ± 1.8%.

For Cc1cc(C)c(/C=C2\C(=O)Nc3ccccc32)[nH]1 [Semaxanib], the GI50 (NCI cell lines) is listed as < 0.01 µM.

For O=C1Nc2ccccc2/C1=C1/Nc2ccccc2C1=O [indirubin, Indirubin], the IC50 [2] is listed as […] and the IC50 [3] is listed as 75 µM.
